Test results from US6844321B2, “Crystallization of a GLP-1 analogue” (Novo Nordisk A/S, priority 2000, dated 2005).

Assay: isoelectric point (pI) of the GLP-1 analogue
Format: physicochemical
Conditions: isoelectric point of the peptide, stated in the description

With Arg^34GLP-1(7-37) the pI was “about 5.4”.
